Data: ChEMBL document CHEMBL1201862, “PubChem BioAssay data set” (2004)
Activity calls are given as the source filed them.

Key:
[1] = HEK293 cell viability, dose response, counter-screen for EBV LMP1 inhibitor project, dry powder, set 2 (AID 624374); type: functional
[2] = P. falciparum Dd2 growth inhibitors, dose response, SYBR Green, dry powder samples, set 9 (AID 1159568); type: functional, cell-based
[3] = lymphoblastoid cell cytotoxicity, dose response, cytotoxicity control, plate reader, dry powder, set 2 (AID 624367); type: functional
[4] = HEK293 Cytotoxicity Assay Measured in Cell-Based System Using Plate Reader - 7071-01_Inhibitor_Dose_CherryPick_Activity_Set2.; type: functional
HepG2 = assay: HepG2 Cytotoxicity Assay Measured in Cell-Based System Using Plate Reader - 7071-02_Inhibitor_Dose_CherryPick_Activity.; type: functional; conditions: Homo sapiens
HEK293 [5] = assay: HEK293T cell cytotoxicity, dose response, cytotoxicity control, ATP luminescence, cherry-pick samples (AID 687005); type: functional, cell-based; conditions: Homo sapiens;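 further: cells exposed to compound for 48 hours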
HeLa = assay: HeLa cell cytotoxicity, dose response, cytotoxicity control, ATP luminescence, cherry-pick samples (AID 687004); type: functional, cell-based; conditions: Homo sapiens
Cryptococcus neoformans = assay: PubChem AID 686997; type: functional, organism-based
[6] = molecular target: Potassium channel subfamily K member 9 (Homo sapiens, UniProt Q9NPC2); assay: TASK3 (KCNK9) channel inhibitors, thallium flux, SAR follow-up, selectivity assay for TASK1 inhibitor project, cell-based, FluxOR thallium flux, concentration-response (AID 652211); type: functional;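 further: potency is for inhibitors of the channel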
[7] = HEK293T cytotoxicity, dose response, cytotoxicity control for miR-122 modulator project, cell-based, activator set, cherry-pick (AID 720690); type: functional;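 further: HEK293T human cells scored for general mammalian cytotoxicity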
HEK293 [8] = assay: NOD1 signaling inhibitors, primary screen, cell-based, luminescence, uHTS (AID 1578); type: functional; conditions: Homo sapiens
HEK293 [9] = assay: cells; type: functional, cell-based; conditions: Homo sapiens
Albumin = Albumin (Bos taurus, UniProt P02769); assay: Counterscreen for inhibitors of T-cell receptor (TCR)-CD3 interaction: Fluorescence-based biochemical high throughput dose response assay to identify inhibitors of T-cell receptor (TCR)-CD3 interaction using a TAMRA-labeled BSA probe.; type: functional
HEK293 [10] = assay: NOD2 signaling inhibitors in MDP-stimulated cells, cell-based, uHTS, luminescence (AID 2001); type: functional; conditions: Homo sapiens
HEK293 [11] = assay: cells; type: functional, cell-based; conditions: Homo sapiens; remark: listed apart in the source
HEK293 [12] = assay: cells; type: functional, cell-based; conditions: Homo sapiens; remark: listed apart in the source
[13] = molecular target: Nucleotide-binding oligomerization domain-containing protein 2 (Homo sapiens, UniProt Q9HC29); assay: NOD2 signaling inhibitors, cell-based, luminescence, uHTS, HEK293 (AID 1566); type: functional
Chain of Nucleotide-binding oligomerization domain-containing protein 2 (Q9HC29 whole entry, the tested form may be a part): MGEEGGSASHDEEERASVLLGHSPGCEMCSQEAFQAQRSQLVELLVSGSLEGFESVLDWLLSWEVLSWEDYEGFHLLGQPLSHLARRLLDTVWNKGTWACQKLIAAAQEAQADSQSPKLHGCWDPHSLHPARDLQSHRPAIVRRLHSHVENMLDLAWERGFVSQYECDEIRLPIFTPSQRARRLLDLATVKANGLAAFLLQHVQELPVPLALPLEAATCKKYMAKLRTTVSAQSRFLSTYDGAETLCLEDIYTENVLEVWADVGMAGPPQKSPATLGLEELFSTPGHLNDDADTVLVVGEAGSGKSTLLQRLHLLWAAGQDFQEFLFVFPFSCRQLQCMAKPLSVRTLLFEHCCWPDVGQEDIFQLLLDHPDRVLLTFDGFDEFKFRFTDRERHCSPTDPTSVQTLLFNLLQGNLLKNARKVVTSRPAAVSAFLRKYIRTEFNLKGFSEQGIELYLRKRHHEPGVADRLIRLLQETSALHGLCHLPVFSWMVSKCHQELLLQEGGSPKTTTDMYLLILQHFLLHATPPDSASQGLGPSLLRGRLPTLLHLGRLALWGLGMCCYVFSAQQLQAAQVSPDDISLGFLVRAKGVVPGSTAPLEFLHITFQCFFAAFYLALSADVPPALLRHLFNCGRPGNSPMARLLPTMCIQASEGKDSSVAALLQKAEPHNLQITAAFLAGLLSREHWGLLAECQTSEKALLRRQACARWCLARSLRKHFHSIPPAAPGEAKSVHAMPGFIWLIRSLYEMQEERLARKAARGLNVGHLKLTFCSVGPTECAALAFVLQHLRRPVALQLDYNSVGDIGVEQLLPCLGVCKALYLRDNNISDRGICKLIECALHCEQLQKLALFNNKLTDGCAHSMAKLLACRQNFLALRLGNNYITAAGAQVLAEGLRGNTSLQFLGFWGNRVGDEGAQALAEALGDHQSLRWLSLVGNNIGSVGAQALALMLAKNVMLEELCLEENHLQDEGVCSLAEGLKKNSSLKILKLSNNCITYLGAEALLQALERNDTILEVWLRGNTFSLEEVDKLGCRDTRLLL

Chain of Potassium channel subfamily K member 9 (Q9NPC2 whole entry): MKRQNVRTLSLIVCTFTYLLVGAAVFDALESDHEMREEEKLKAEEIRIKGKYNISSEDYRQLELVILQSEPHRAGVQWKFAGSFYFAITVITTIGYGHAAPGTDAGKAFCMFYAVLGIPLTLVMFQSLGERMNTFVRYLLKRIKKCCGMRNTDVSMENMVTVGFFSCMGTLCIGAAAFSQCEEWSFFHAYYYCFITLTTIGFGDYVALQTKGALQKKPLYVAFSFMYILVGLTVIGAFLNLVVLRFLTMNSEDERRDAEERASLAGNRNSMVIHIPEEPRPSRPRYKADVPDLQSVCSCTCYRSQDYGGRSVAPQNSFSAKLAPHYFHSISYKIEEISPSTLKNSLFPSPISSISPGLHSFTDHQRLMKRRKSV
Chain of Albumin (P02769 whole entry): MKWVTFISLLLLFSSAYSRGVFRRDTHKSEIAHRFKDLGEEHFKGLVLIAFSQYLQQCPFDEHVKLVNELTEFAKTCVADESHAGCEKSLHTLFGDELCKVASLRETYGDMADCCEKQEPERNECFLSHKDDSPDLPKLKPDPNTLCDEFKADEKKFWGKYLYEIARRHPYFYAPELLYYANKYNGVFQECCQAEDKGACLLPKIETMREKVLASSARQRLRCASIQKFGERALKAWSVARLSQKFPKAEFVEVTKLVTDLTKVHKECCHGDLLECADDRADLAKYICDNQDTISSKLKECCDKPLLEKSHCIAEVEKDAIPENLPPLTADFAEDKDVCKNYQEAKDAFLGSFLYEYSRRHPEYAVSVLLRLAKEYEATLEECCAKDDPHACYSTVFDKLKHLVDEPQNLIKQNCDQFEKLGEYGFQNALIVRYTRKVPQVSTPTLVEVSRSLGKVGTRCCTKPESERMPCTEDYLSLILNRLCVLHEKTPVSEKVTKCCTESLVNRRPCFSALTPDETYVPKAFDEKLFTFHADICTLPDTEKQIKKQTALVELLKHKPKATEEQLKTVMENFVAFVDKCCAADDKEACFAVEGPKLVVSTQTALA

SMILES: CC(C)(C)[S@+]([O-])N1Cc2cc(C(=O)NCC(F)(F)F)nc(-c3cccc(-c4cccc(F)c4)c3)c2[C@@H]1CCO
- AbsAC35 [1]: 111.16 µM
- AC50 [2]: 6.29 µM (active)
- AbsAC35 [3]: 124.56 µM

SMILES: O=C(CC1CC1)N1[C@@H]2CN(S(=O)(=O)c3ccccc3)c3ccccc3[C@@H]2[C@@H]1CO
- AC50 [4]: 28 µM (active)
- AC50 (HepG2): 19.8 µM (active)
- AC50 (HEK293 [5]): 28 µM (active)

SMILES: COC(=O)C1=C(C)N(Cc2ccc(Cl)cc2)C(=S)NC1c1cccc(Cl)c1 (centres undefined)
- AC50 (HeLa): > 47 µM (inactive)
- AC50 [4]: 23.4 µM (active)
- AC50 (Cryptococcus neoformans): > 70 µM (inactive)
- AC50 (HEK293 [5]): 23.4 µM (active)

SMILES: O=C(Nc1cccc(NC(=O)C2CCCCC2)c1)c1ccccc1
- IC50 [6]: 8 µM (active)

SMILES: COc1cccc(S(=O)(=O)N(C)C[C@@H]2Oc3cc(C4=CCCCC4)ccc3S(=O)(=O)N([C@H](C)CO)C[C@@H]2C)c1
- AC50 [7]: 25.1 µM (active)

SMILES: O=C(CNC(=O)c1cccc(Br)c1)N/N=C/c1cc(Br)cc(Br)c1O
- EC50 (HEK293 [8]): > 20 µM (inactive)
- IC50 (HEK293 [9]): > 20 µM (inactive)
- IC50 (Albumin): > 94.1 µM (inactive)
- IC50 (HEK293 [10]): > 20 µM (inactive)
- IC50 (HEK293 [11]): 19.4 µM (active)
- IC50 (HEK293 [12]): > 20 µM (inactive)
- EC50 [13]: > 20 µM (inactive)
